# Test results taken from the supplement of paper PMC10733146.
# Key:
# Assay in all cases: viability relative to DMSO control (fraction); higher = less drug effect (more viable cells)
# Details in all cases: 48 h
# [1] = system: primary T-NHL patient cells (S058)
# Summary of the method: (§1)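 The cells were primary mononuclear tumour cells, either fresh or cryopreserved, isolated by Ficoll from blood or bone marrow or derived from processed lymph node. Each well of a 384-well plate received 4 × 10^4 cells onto compounds pre-plated at five concentrations, with one well per concentration. The medium was RPMI-1640 with penicillin/streptomycin, L-glutamine and human serum, and plates stood at 37 °C and 5% CO2 for 48 h. Viability is reported as CellTiter-Glo luminescence relative to the median of 16 inner DMSO wells.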
# [2] = system: primary AML patient cells (S056)
# Summary of the method: as §1
# [3] = system: primary AML patient cells (S085)
# Summary of the method: as §1
# [4] = system: primary CLL patient cells (S031)
# Summary of the method: as §1
# [5] = system: primary CLL patient cells (S043)
# Summary of the method: as §1
# [6] = system: primary MCL patient cells (S041)
# Summary of the method: as §1
# [7] = system: primary AML patient cells (S081)
# Summary of the method: as §1
# [8] = system: primary AML patient cells (S037)
# Summary of the method: as §1
# [9] = system: primary AML patient cells (S012)
# Summary of the method: as §1
# [10] = system: primary T-PLL patient cells (S008)
# Summary of the method: as §1
# [11] = system: primary DLBCL patient cells (S076)
# Summary of the method: as §1
# [12] = system: primary MCL patient cells (S063)
# Summary of the method: as §1
# [13] = system: primary AML patient cells (S007)
# Summary of the method: as §1
# [14] = system: primary MCL patient cells (S068)
# Summary of the method: as §1
# [15] = system: primary AML patient cells (S006)
# Summary of the method: as §1
# [16] = system: primary AML patient cells (S011)
# Summary of the method: as §1
# [17] = system: primary DLBCL patient cells (S049)
# Summary of the method: as §1
# [18] = system: primary BL patient cells (S005)
# Summary of the method: as §1
smiles,measurement,setting,value
Nc1cccc2c1CN(C1CCC(=O)NC1=O)C2=O (stereo not given) [Lenalidomide],viability,[1]; 0.008 µM,0.915
same,viability,[1]; 0.04 µM,1.17
same,viability,[1]; 0.2 µM,0.862
same,viability,[1]; 1 µM,1.14
same,viability,[1]; 5 µM,0.91
same,viability,[2]; 0.008 µM,1.04
same,viability,[2]; 0.04 µM,1.24
same,viability,[2]; 0.2 µM,0.961
same,viability,[2]; 1 µM,0.98
same,viability,[2]; 5 µM,0.84
same,viability,[3]; 0.008 µM,0.956
same,viability,[3]; 0.04 µM,0.688
same,viability,[3]; 0.2 µM,0.572
same,viability,[3]; 1 µM,0.524
same,viability,[3]; 5 µM,0.529
same,viability,[4]; 0.008 µM,1.09
same,viability,[4]; 0.04 µM,1.08
same,viability,[4]; 0.2 µM,1.08
same,viability,[4]; 1 µM,1.04
same,viability,[4]; 5 µM,1.01
same,viability,[5]; 0.008 µM,1.1
same,viability,[5]; 0.04 µM,1.07
same,viability,[5]; 0.2 µM,1.08
same,viability,[5]; 1 µM,1.05
same,viability,[5]; 5 µM,1.05
same,viability,[6]; 0.008 µM,1.01
same,viability,[6]; 0.04 µM,0.929
same,viability,[6]; 0.2 µM,0.888
same,viability,[6]; 1 µM,0.953
same,viability,[6]; 5 µM,0.863
same,viability,[7]; 0.008 µM,1.03
same,viability,[7]; 0.04 µM,1.06
same,viability,[7]; 0.2 µM,0.999
same,viability,[7]; 1 µM,1.05
same,viability,[7]; 5 µM,1
same,viability,[8]; 0.008 µM,1.03
same,viability,[8]; 0.04 µM,1.31
same,viability,[8]; 0.2 µM,0.912
same,viability,[8]; 1 µM,1.03
same,viability,[8]; 5 µM,0.867
same,viability,[9]; 0.008 µM,0.913
same,viability,[9]; 0.04 µM,0.956
same,viability,[9]; 0.2 µM,0.874
same,viability,[9]; 1 µM,0.946
same,viability,[9]; 5 µM,0.981
same,viability,[10]; 0.008 µM,0.988
same,viability,[10]; 0.04 µM,0.995
same,viability,[10]; 0.2 µM,0.907
same,viability,[10]; 1 µM,0.836
same,viability,[10]; 5 µM,0.798
same,viability,[11]; 0.008 µM,0.847
same,viability,[11]; 0.04 µM,1.11
same,viability,[11]; 0.2 µM,0.749
same,viability,[11]; 1 µM,0.992
same,viability,[11]; 5 µM,1.06
same,viability,[12]; 0.008 µM,1.14
same,viability,[12]; 0.04 µM,1.09
same,viability,[12]; 0.2 µM,1.08
same,viability,[12]; 1 µM,1.11
same,viability,[12]; 5 µM,1.11
same,viability,[13]; 0.008 µM,0.801
same,viability,[13]; 0.04 µM,0.386
same,viability,[13]; 0.2 µM,0.204
same,viability,[13]; 1 µM,0.188
same,viability,[13]; 5 µM,0.152
same,viability,[14]; 0.008 µM,1.02
same,viability,[14]; 0.04 µM,0.803
same,viability,[14]; 0.2 µM,0.832
same,viability,[14]; 1 µM,0.764
same,viability,[14]; 5 µM,0.736
same,viability,[15]; 0.008 µM,0.847
same,viability,[15]; 0.04 µM,0.602
same,viability,[15]; 0.2 µM,0.463
same,viability,[15]; 1 µM,0.633
same,viability,[15]; 5 µM,0.372
same,viability,[16]; 0.008 µM,0.811
same,viability,[16]; 0.04 µM,0.644
same,viability,[16]; 0.2 µM,0.488
same,viability,[16]; 1 µM,0.496
same,viability,[16]; 5 µM,0.461
same,viability,[17]; 0.008 µM,0.962
same,viability,[17]; 0.04 µM,1.09
same,viability,[17]; 0.2 µM,0.905
same,viability,[17]; 1 µM,0.943
same,viability,[17]; 5 µM,0.974
same,viability,[18]; 0.008 µM,0.943
same,viability,[18]; 0.04 µM,1.29
same,viability,[18]; 0.2 µM,1.22
same,viability,[18]; 1 µM,0.897
same,viability,[18]; 5 µM,1.12
